Series [1] has as its target SARS-CoV-2 S-protein RBD / ACE2 interaction (UniProt P0DTC2+Q9BYF1). As to the kind of experiment: biochemical. More on the design: species or system SARS-CoV-2 / human. The settings on record: EC50 (HTRF), inhibition of binding of S-RBD to ACE2.

The values below come from article PMC9281089 (Journal of Translational Medicine, 2022).

Structures are written as SMILES. “And” between values parts separate entries of the source, which are not always exact repeats. Equal entries are not always repeated. Structures can show the parent of a compound that is named as a salt.

Turning to `N=C(N)c1ccc2cc(OC(=O)c3ccc(N=C(N)N)cc3)ccc2c1` [Nafamostat mesylate, reference compound], the EC50 (commonly the midpoint of the concentration-response curve) in series [1] was 11.3 µM.
The same measure, in the same setting: the result for `O=C1c2ccccc2C(=O)c2ccccc21` [TS-1276, anthraquinone] reads 55.9 µM and 16.4 µM.
`COc1ccc2c3ccnc4ccc(=O)n(c2c1)c43` [TS-984, 9-Methoxycanthin-6-one] had an EC50 in series [1] of 36.2 µM. The “cytotoxicity (comparative)” value with cells (compared with tannic acid and nafamostat mesilate) is reported as “lower cytotoxicity”.
For the molecule `O=C(OC[C@H]1O[C@@H](OC(=O)c2cc(O)c(O)c(OC(=O)c3cc(O)c(O)c(O)c3)c2)[C@H](OC(=O)c2cc(O)c(O)c(OC(=O)c3cc(O)c(O)c(O)c3)c2)[C@@H](OC(=O)c2cc(O)c(O)c(OC(=O)c3cc(O)c(O)c(O)c3)c2)[C@@H]1OC(=O)c1cc(O)c(O)c(OC(=O)c2cc(O)c(O)c(O)c2)c1)c1cc(O)c(O)c(OC(=O)c2cc(O)c(O)c(O)c2)c1` [tannic acid, reference compound], the cytotoxicity to cells result with cells (at a high concentration (> 30 µM)) is “strong cytotoxicity”. Besides, in the series with cells (when the effective concentration is applied), the “cytotoxicity at effective concentration” value was “higher cytotoxicity that leads to cell death”.
